Test results taken from ChEMBL document CHEMBL1156829 (Proc Natl Acad Sci U S A, 2008).

Key:
Plasmodium falciparum [1] = assay: NOVARTIS: Inhibition of Plasmodium falciparum 3D7 (drug-susceptible) proliferation in erythrocyte-based infection assay; type: functional, organism-based; details: Plasmodium falciparum, 3D7
Plasmodium falciparum [2] = assay: NOVARTIS: Inhibition of Plasmodium falciparum W2 (drug-resistant) proliferation in erythrocyte-based infection assay; type: functional, organism-based; details: Plasmodium falciparum, W2; read-out: EC50
[3] = NOVARTIS: Cytotoxicity against human hepatocellular carcinoma cell line (Huh7); type: toxicity, cell-based, Huh-7; details: Huh7 cells (hepatocellular carcinoma cell line)

| Structure (SMILES) | EC50 (Plasmodium falciparum [1]) [nM] | EC50 (Plasmodium falciparum [2]) [nM] | CC50 [3] [nM] |
| --- | --- | --- | --- |
| CCN1/C(=C/c2sc3ccc(Br)cc3[n+]2CC)C=Cc2ccccc21 | 645 | 1080 | > 10000 |
| COc1ccc(C=NNc2nc(O)cc(-c3ccccc3)n2)cc1OC | 632 | > 1100 | > 10000 |
| COC(=O)c1ccc(C(=O)Nc2ccc(-c3nc4cc(NC(=O)c5ccc(C(=O)OC)cc5)ccc4[nH]3)cc2)cc1 | 855 | 1090 | > 10000 |
| CCOC(=O)c1sc(NC(=O)CSc2nnc(CNC(=O)c3ccco3)n2-c2ccc(F)cc2)c(C(=O)OCC)c1C | > 1250 | > 1060 | > 10000 |
| CC(C)OC(=O)NC(Nc1ccccc1)C(Cl)(Cl)Cl (configuration not stated) | > 1080 | > 1080 | > 10000 |
| COc1ccc(Cn2c(=S)[nH]c3ccsc3c2=O)cc1 | > 1430 | 1100 | > 10000 |
| CN(C)c1ccc(/C=C2\C(=O)NC(=O)N(Cc3ccccc3Cl)C2=O)cc1 | > 1250 | 1110 | > 10000 |
| CC[n+]1c(C=C2C=CN(c3ccc(Cl)cc3)C=C2)ccc2ccccc21 | 725 | 1090 | > 10000 |
| CCC(C)NC(=O)CSc1nnc(-c2cccnc2)n1-c1ccc(Cl)cc1 (configuration not stated) | > 1520 | > 1090 | > 10000 |
| CN(CCCNc1ccnc2cc(Cl)ccc12)C(=O)c1cccc(C(F)(F)F)c1 | 85.1 | 278 | > 2550 |
| Cc1ccc(CNC(=O)c2cc(=O)[nH]c3ccc(S(=O)(=O)N4CCOCC4)cc23)cc1 | 1430 | > 1090 | > 10000 |
| COc1cc(NC(C)CCCN(Cc2ccc(OC)c(OC)c2)C(=O)CC(C)CC(C)(C)C)c2ncccc2c1 (configuration not stated) | 1040 | 640 | 5890 |
| CN1CCN(C(c2ccco2)c2sc3ncnn3c2O)CC1 (configuration not stated) | > 1250 | 1080 | > 10000 |
| CN(C)c1ccc(NC(=O)c2cccnc2C(=O)O)cc1 | 320 | 841 | 7840 |
| CCCCCN(C(=O)c1ccc(C)cc1)C(CC)c1nc2ccccc2c(=O)n1-c1ccccc1OC (configuration not stated) | 893 | 1070 | > 10000 |
| O=C(NCCCCNc1ccnc2cc(Cl)ccc12)c1ccco1 | 723 | 1400 | > 13100 |
| COc1ccccc1N(CC(=O)N1CCCCC1)S(=O)(=O)c1ccccc1 | > 1250 | > 1070 | > 10000 |
| COc1cccc2cc(-c3csc(NC(=O)CCC(=O)NC4CCCC4)n3)c(=O)oc12 | > 1250 | > 1070 | > 10000 |
| COc1cc(/C=C/c2nc(O)nc(O)c2[N+](=O)[O-])cc(Br)c1O | > 1250 | > 987 | > 9110 |
| CCCCCCN(C(=O)Nc1cccc(C#N)c1)C(CC)c1nc2ccccc2c(=O)n1CCC(=O)OC (configuration not stated) | 979 | 1070 | > 10000 |
| Cc1ccc(CN2C[C@H](n3cnnn3)C[C@H]2C(=O)NCCc2cccc(Cl)c2)c(C)c1 | 1320 | 1120 | > 10400 |
| COc1ccc2c(c1OC)C(=O)N(c1ncc(C)s1)C2 | > 1250 | > 1080 | > 10000 |
| CCCCCCOc1ccc(C(C)=NNC2=NCCN2)cc1[N+](=O)[O-] | 228 | 791 | 7320 |
| COc1cc(C=NNc2nc3cc(Cl)ccc3[nH]2)cc(OC)c1OC | 904 | 1080 | > 10000 |
| COc1ccccc1NC(=O)C(=O)NCCc1ccc(OC)c(OC)c1 | > 10300 | > 10800 | > 100000 |
| NC(=O)CSc1nnc2ccc(-c3ccc4c(c3)OCO4)nn12 | > 1250 | > 1110 | > 10000 |
| CCN(CC)CCCC(C)N(Cc1cccc(OCc2ccccc2)c1)C(=O)NCc1ccccc1 (configuration not stated) | > 1250 | > 1100 | > 10000 |

| Structure (SMILES) | EC50 (Plasmodium falciparum [1]) [nM] | EC50 (Plasmodium falciparum [2]) [nM] | CC50 [3] [nM] |
| --- | --- | --- | --- |
| CCCOc1ccc(Cc2c(C)nc3ccc(Br)cc3c2O)cc1 | 1030 | 1100 | > 10000 |
| OC1(c2ccc(Br)cc2)CCN(C2CCN(CCc3ccccc3)CC2)CC1 | 136 | 527 | 4770 |
| Cc1oc2c(c1C(=O)N1CCCC1)C(=O)c1ccccc1C2=O | 2370 | 1050 | 9860 |
| CC(=O)Nc1cccc(N(C(=O)C2COc3ccccc3O2)C(C(=O)NC2CCCCC2)c2ccc(O)cc2)c1 (configuration not stated) | > 1250 | > 1100 | > 10000 |
| CCc1n(C)c2ccccc2[n+]1CC(=O)c1ccc(Br)cc1 | 1660 | 1100 | > 10000 |
| O=C(COc1ccc(Cl)cc1)NCc1ccc(CNc2noc3ccccc23)cc1 | 3100 | 7290 | 66200 |
| Cc1ccc(-c2ccc(C#N)c(OCC(=O)NCCc3ccccc3)n2)c(C)c1 | > 1250 | > 1060 | > 10000 |
| O=C(c1cc([N+](=O)[O-])cc([N+](=O)[O-])c1)N1CCN(c2cccc(C(F)(F)F)c2)CC1 | 1180 | 1100 | > 10000 |
| Cn1cc([N+](=O)[O-])c(C(=O)NN=Cc2c[nH]c3ccccc23)n1 | 1940 | 1100 | > 10000 |
| O=C(CCC1CCCN(C(=O)c2ccsc2)C1)N1CCN(c2ccccn2)CC1 (configuration not stated) | > 1250 | > 1100 | > 10000 |
| CN1CCCC(CNC(=O)c2cnn(-c3ncc4c(n3)-c3ccccc3SC4)c2C2CC2)C1 (configuration not stated) | 976 | 1100 | > 10000 |
| Cc1cccc(NC(=O)c2ccc3ccccc3n2)n1 | > 547 | > 1090 | > 10000 |
| Cc1ccccc1NC(c1cccc(Cl)c1)c1nnnn1C1CCCCC1 (configuration not stated) | > 1720 | > 1070 | > 10000 |
| COc1ccccc1C(c1c(C)n[nH]c1O)c1c(C)n[nH]c1O | > 1250 | > 1100 | > 10000 |
| CCOC(=O)c1cnc2c(C)c3[nH]c(C)c(C)c3cc2c1O | > 1310 | 1070 | > 10000 |
| COc1ccc(/C=C2\SC(=N)N(c3ccc4c(c3)OCO4)C2=O)cc1OC | > 1720 | > 1060 | > 10000 |
| COc1cc2c3cc1Oc1c(OC)c(OC)cc4c1C(Cc1ccc(O)c(c1)Oc1ccc(cc1)CC3N(C)CC2)N(C)CC4 (configuration not stated) | 997 | 1060 | > 10000 |
| C=CCSc1nn2c(=O)c(C)nnc2s1 | > 1620 | 1080 | > 10000 |
| CC(C)(C)NC(=O)C(c1cccs1)N(CCCN1CCOCC1)C(=O)c1ccc(-c2ccccc2)[nH]1 (configuration not stated) | 1230 | 1110 | > 10000 |
| CCOC(=O)N1CCC(NC(=O)CSCc2nc(-c3cccc(OC)c3)oc2C)CC1 | > 1250 | > 1080 | > 10000 |
| O=C(/C=C/c1ccc(Br)cc1)NC(=O)c1ccccc1O | > 1250 | 1090 | > 10000 |
| CCOc1ccc(-c2cn3c([n+]2Cc2ccccc2)SCCC3)cc1 | 648 | 1090 | > 10000 |
| Cc1cc(-c2cnc(N3CCCC3)nc2C2CCN(Cc3cccnc3)CC2)on1 | 190 | > 1090 | > 10000 |
| O=[N+]([O-])c1cc([N+](=O)[O-])c2cccnc2c1Nc1cccc2cccnc12 | 8040 | 6440 | 59900 |
| CCN(CC)CCCC(C)NC(=O)CSc1nc2ccccc2c(=O)n1-c1cccc(Cl)c1 (configuration not stated) | > 1250 | > 1070 | > 10000 |
| COCCCNC(=O)/C=C/c1ccc(C(C)C)cc1 | 1050 | 1490 | > 13500 |
| N#Cc1c(NC(=O)COc2ccc(F)cc2F)sc2c1CCC2 | > 1250 | > 1070 | > 10000 |
